Source: patent US7723328B2, “Methods of facilitating cell survival using neurotrophin mimetics” (The University of North Carolina at Chapel Hill, priority 2005, dated 2010)
“Also recorded” adds a separate entry of the source. Read-outs that look alike come from different tables or passages of the source.

Tests used:
E17 hippocampal neurons = assay: Aβ-induced death of hippocampal neurons; format: cell-based; conditions: Aβ1-42 10 μM; NGF at 100 pg/ml
Experimental: Using previously well established protocols, Aβ was preincubated for 3 days in water to allow formation of oligomers. E17 hippocampal neurons were incubated for 5 days to allow for maturation prior to addition of Aβ with test compounds.

p75^NTR-Fc [1] = target: T1, p75^NTR-Fc (Homo sapiens, UniProt P08138); assay: NGF/p75NTR-Fc binding by NGF ELISA, Gaddum/Schild fit; conditions: read-out: KD for NGF; in the absence of compounds
T1 construct: purchased R&D Systems
Experimental: Briefly, 96-well plates were incubated with 0.1 pmol (at 1 nM) of p75/Fc or TrkA/Fc recombinant protein obtained from R&D System (Minneapolis, Minn., United States of America) overnight at 4° C. followed by incubation with blocking buffer for 1 hour at room temperature. […] Plates were then washed five times with Tris-buffered saline (TBS) containing 0.05% Tween-20 and incubated with anti-NGF rabbit polyclonal antibody overnight at 4° C. Following five washes with TBS, wells were incubated for 2.5 hours at room temperature with anti-rabbit IgG HRP conjugate and washed five times. 3,3′,5,5′-tetramethyl-benzidine substrate was added and the optical density measured at 450 nm.
A regression analysis of NGF-p75^NTR binding in the presence of the p75-binding compounds was performed. The data was fit using the Nonlinear Regression module of Sigmaplot, to a modification of the Gaddum/Schild equation (adapted from Motulsky, H. J., and Christopoulos. A. (2003) A Practical Guide to Curve Fitting, 2nd edn. (San Diego, Calif., GraphPad Software, Inc.): […]

p75^NTR-Fc [2] = target: T1, p75^NTR-Fc; conditions: read-out: KD for NGF, previous reports; Nykjaer et al. 2004; cited from earlier work
ERK42 = ERK42 activation western blot in hippocampal cultures; format: cell-based, mouse; conditions: compounds 20 nM, BDNF/NGF 50 ng/ml; 10 and 30 min
Experimental: (§1) For assays of Trk, AKT, NFκB, and ERK activation, hippocampal neurons derived from E16-17 mice were cultured in poly-L-lysine coated six-well plates (Corning, Inc., Corning, N.Y., United States of America) in DMEM containing 10% FBS, followed by incubation in serum-free DMEM for 2 hours before addition of neurotrophins or compounds. At the indicated time points, neurons were harvested in lysis buffer consisting of: 20 mM Tris, pH 8.0, 137 mM NaCl, 1% Igepal CA-630, 10% glycerol, 1 mM PMSF, 10 μg/ml aprotinin, 1 μg/ml leupeptin, 500 μM orthovanadate (Zhou, J., Valletta, J. S., Grimes, M. L., Mobley, W. C. (1995) J Neurochem 65, 1146-1156).
(§2) Lysates were centrifuged, the supernatant collected, and protein concentrations determined using the BCA Protein Assay Reagent obtained from Pierce (Rockford, Ill., United States of America). Western blots were performed as described previously (Yang, T. et al. (2003) J Neurosci 23, 3353-3363). Western blot signals were detected using the ECL Chemiluminescence System obtained by Amersham (Piscataway, N.J., United States of America) (Yang, T. et al. (2003) J Neurosci 23, 3353-3363).

TrkB = target: T2, TrkB (Mus musculus, UniProt P15209); assay: Trk Y490 phosphorylation western blot in hippocampal neuron cultures; format: cell-based; conditions: 10 or 30 minutes
T2 construct: endogenous in cells; host or cells: primary hippocampal neurons from E16-17 mouse embryos
Experimental: as §1, §2

p75^NTR−/− cells = assay: Survival of p75NTR+/+ versus p75NTR-/- hippocampal neurons; format: cell-based, mouse; conditions: neurotrophins 1.8 nM, compounds 5 nM
Experimental: (§3) Hippocampal neurons were prepared from E16-17 mouse embryos as previously described (Yang. T. et al. (2003) J Neurosci 23, 3353-3363). […] For studies employing p75^NTR+/+ and p75^NTR−/− neurons, mice carrying a mutation in exon 3 of the p75^NTR gene (Lee, K. F. et al. (1992) Cell 69, 737-749) were bred onto a B6 congenic background (>10 B6 backcrosses).
(§4) After 48 hours in culture, cell survival was assessed as previously described (Longo, F. M., Manthorpe. M., Xie. Y. M., Varon, S. (1997) J Neurosci Res 48, 1-17) using a combination of standard morphological criteria along with visual determination of whether a given cell converted MTT to its blue formazan product. The number of surviving neurons was determined by counting the total number of cells in each well that were both morphologically intact and filed with blue product (Longo F. M., Manthorpe. M., Xie, Y. M., Varon, S. (1997) J Neurosci Res 48, 1-17). For each neurotrophin or compound concentration, duplicate wells were counted and the resulting values averaged. Activity of each compound was confirmed by blinded counts. Counts were normalized to survival achieved with 25 ng/ml BDNF or to baseline survival. Fitting of dose-responsive curves was performed with Sigmaplot obtained from SYSTAT Software Inc. (Richmond, Calif., United States of America).
(§5) For all studies applying signaling inhibitors, p75^NTR antibodies or p75^NTR−/− neurons, survival was assessed at 48 hours.

AKT = AKT activation western blot in hippocampal cultures; format: cell-based, mouse; conditions: p75NTR−/− neurons, versus culture medium alone
Experimental: as §1, §2

hippocampal neurons = assay: Hippocampal neuron survival with signaling pathway inhibitors; format: cell-based, mouse; conditions: PD98059 50 μM; BDNF/NGF 25 ng/ml, compounds 5 nM; 48 h
Experimental: as §3, §4, §5

T1 sequence (P08138 with tags, fused parts or gaps limits assumed): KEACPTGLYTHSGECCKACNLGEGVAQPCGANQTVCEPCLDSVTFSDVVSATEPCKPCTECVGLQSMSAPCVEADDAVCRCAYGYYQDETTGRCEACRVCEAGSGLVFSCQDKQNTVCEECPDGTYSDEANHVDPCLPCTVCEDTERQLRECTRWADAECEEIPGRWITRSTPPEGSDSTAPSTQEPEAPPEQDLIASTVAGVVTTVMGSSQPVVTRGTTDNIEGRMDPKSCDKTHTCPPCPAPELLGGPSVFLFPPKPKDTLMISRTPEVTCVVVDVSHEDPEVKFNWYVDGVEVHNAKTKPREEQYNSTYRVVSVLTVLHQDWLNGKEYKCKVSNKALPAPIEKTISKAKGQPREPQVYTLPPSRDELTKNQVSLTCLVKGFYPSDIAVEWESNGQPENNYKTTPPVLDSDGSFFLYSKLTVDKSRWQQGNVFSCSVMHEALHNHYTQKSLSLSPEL
T2 sequence (P15209 32-821): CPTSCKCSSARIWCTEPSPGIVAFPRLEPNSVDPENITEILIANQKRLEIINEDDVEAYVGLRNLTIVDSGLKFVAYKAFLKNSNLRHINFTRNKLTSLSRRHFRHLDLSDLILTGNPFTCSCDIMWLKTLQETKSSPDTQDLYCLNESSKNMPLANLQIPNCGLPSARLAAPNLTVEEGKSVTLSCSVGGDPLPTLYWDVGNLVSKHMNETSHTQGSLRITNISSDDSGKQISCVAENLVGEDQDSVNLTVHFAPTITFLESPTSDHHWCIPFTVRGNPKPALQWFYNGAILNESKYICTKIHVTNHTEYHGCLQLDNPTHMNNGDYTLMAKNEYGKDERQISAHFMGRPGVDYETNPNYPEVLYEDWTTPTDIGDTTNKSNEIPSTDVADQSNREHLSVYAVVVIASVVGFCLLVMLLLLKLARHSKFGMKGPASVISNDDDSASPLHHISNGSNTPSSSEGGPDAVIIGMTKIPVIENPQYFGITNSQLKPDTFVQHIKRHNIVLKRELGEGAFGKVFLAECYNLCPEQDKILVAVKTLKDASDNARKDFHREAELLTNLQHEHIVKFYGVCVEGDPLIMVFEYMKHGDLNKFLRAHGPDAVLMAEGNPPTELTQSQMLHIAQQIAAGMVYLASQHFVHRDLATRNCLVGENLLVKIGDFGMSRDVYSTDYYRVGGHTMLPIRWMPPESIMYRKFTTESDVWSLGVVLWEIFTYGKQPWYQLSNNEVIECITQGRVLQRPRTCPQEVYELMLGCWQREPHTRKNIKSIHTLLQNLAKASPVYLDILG

- Kd (p75^NTR-Fc [1]): 0.8 to 0.9 nM
- TrkB activation (Trk Y490 phosphorylation) (TrkB): no activation was detected
Substance: NGF: Recombinant human NGF obtained from Invitrogen
- protection against Aβ1-42-induced death (E17 hippocampal neurons): fails to protect; also recorded: did not protect
- Kd (p75^NTR-Fc [2]): ~1 nM
- ERK42 activation (ERK42): greater with BDNF and NGF treatment than with the p75-binding compounds
- effect of p75NTR-deficiency on promotion of neuron survival by the substance (p75^NTR−/− cells): lack of response; also recorded: completely inhibits
- AKT activation in p75NTR−/− cells (AKT): completely absent
- effect of PD98059 (ERK inhibitor) on survival promoted by the substance (hippocampal neurons): small but significant effect; also recorded: small effects
